For data set [1], the system named is γ globin chain. The experiment in a line: Efficacy study in anemic rhesus monkeys: % γ globin chain (HPLC). Format: in vivo, rhesus monkey (anemic).
Method: (§1) Fetal hemoglobin cells (F cells), Hemoglobin F level in total Hemoglobin (% Hb F) and % γ globin chain levels were monitored before and after each of the two phases. % F cells were measured according to the protocol described in Betke et al, Blut., 4, pp. 241-9 (1958). % Hb F and % γ globin chain synthesis were measured using High Performance Liquid Chromatography (HPLC) according to the protocol described in Huisman, J. Chromagtogr., 418, pp. 277 (1987)
For data set [2], the system named is Fetal hemoglobin cells (F cells). The experiment in a line: Efficacy study in anemic rhesus monkeys: % F cells. The data set is classed as in vivo, rhesus monkey (anemic).
Method: Each group was studied in two phases, as shown below.
Phase I of the efficacy study.
I 2 Hydroxyurea 50 mg/kg/day
Phase II of the efficacy study.
The subject of data set [3] is Hemoglobin F. The experiment in a line: Efficacy study in anemic rhesus monkeys: % Hb F (HPLC). Format: in vivo, rhesus monkey (anemic).
Method: as §1
The nature of data set [4]: Triglycerides and ALT in the efficacy study. The following applies: three groups, prior to or during the two phases.
In data set [5] the test system is fetal hemoglobin. The following applies: sickle cell anemia patients; cited from earlier work.
The conditions of data set [6]: in vivo; cited from earlier work.
For data set [7] the following is noted: rhesus monkey, in vivo.
The test system of data set [8] is retinoblastoma cell lines. The following applies: cited from earlier work.
Data set [9] has as its system urokinase plasminogen activator and its receptor mRNA. The following applies: colon cancer cell lines; cited from earlier work.
The subject of data set [10] is pancreatic cancel cells. The following applies: pancreatic cancer cells; cited from earlier work.
Data set [11] relates to colorectal carcinoma cell lines. The following applies: cited from earlier work.
Data set [12] has as its system tumor, leukemia. The following applies: mice; cited from earlier work.
The test system of data set [13] is Cultured Erythroleukemic Cells. The following applies: in vitro; cited from earlier work.
Data set [14] relates to leukemia. The following applies: cited from earlier work.

Read-outs that look alike come from different tables or passages of the source.

The values that follow come from patent US5880152A, “Butyrate prodrugs derived from lactic acid” (Vertex Pharmaceuticals, Inc., priority 1997, dated 1999).

Take `CCCC(=O)O[C@@H](C)C(=O)OCC` [Compound IIIc]: the “change in γ-globin chain levels” value in data set [1] (Groups II and III) was “no measurable change”. The “change in % F cells” value in [2] (Groups II and III) is “small but significant increase”. For the same compound, the “change in HbF” value in [3] (Groups II and III) is listed as “no measurable change”. Also, in data set [4], the “levels of ALT” value is “no detectable difference” and the “levels of the triglycerides” value was “no detectable difference”.

Regarding `NC(=O)NO` [Hydroxyurea, hydroxyurea], the “change in % γ-globin chain levels” value in data set [1] (Group I) is “measurable increase”. In [5], the fetal hemoglobin production result is given as “stimulates fetal hemoglobin production” and the sickling crisis entry is recorded as “reduces sickling crisis”. In data set [2] (animal 1, group I, end of Phase I (hydroxyurea 50 mg/kg/day, 5 weeks), before Phase I 8-10), the “% F cell count” value is recorded as 25%. For the same compound, the toxicity entry in data set [6] is “potentially limited by myelotoxicity and the risk of carcinogenesis”. Moreover, in data set [3] (Group I), the “change in % Hb F” value is “measurable increase”. Further, in data set [7], the “levels of ALT” value was “no detectable difference” and the “levels of the triglycerides” value is on record as “no detectable difference”.

On to `CCCC(=O)[O-].[Na+]` [Sodium butyrate], for which the apoptosis result in [8] and in [11] was “induce apoptosis” each time. Further, the “urokinase plasminogen activator and its receptor mRNA expression” value in data set [9] was “inhibit”. For the same compound, the antigen expression result in [10] was “modify antigen expression”.

Take `CCCC(=O)O` [arginine butyrate]: the “anti-tumor and anti-leukemia effects” value in data set [12] is “exert anti-tumor and anti-leukemia effects in mice”.

As for `CCCC(=O)O` [butyric acid], the cell differentiation result in data set [13] is “induces cell differentiation”. Also, the “effect in leukemia patients, by inducing cell differentiation” value in data set [14] is “promising effects”.
